The nature of data set [1]: UV absorption in CHCl3. The class given is physicochemical.
A short description of data set [2]: solid UV absorption spectrum of a film of the screened compound dispersed in white petroleum jelly. The class given is physicochemical. As to conditions: 5 g screened compound per 100 g petroleum jelly "Codex 236", film 10 Am thick, Shimadzu UV 2101 PC spectrophotometer. From the text:
This 2,4,6-tris[(3′-benzotriazol-2-yl-2′-hydroxy-5′-methyl)phenylamino]-s-triazine was screened at 50 μm through a screen of stainless steel-gauze stainless steel assembly. Next, it was dispersed in white petroleum jelly sold under the trade name “Codex 236” by the company Sarega at the melting point of the petroleum jelly and in a proportion of 5 g of screened 2,4,6-tris[(3′-benzotriazol-2-yl-2′-hydroxy-5′-methyl) phenylamino]-s-triazine per 100 g of petroleum jelly. This mixture was then treated with ultrasound in order to ensure homogeneous dispersion. A film 10 Am thick was analysed.
The solid UV absorption spectrum was obtained using a Shimadzu UV 2101 PC spectrophotometer and is represented in FIG. 1.
The solid UV absorption spectrum of this 2,4,6-tris[(3′-benzotriazol-2-yl-2′-hydroxy-5′-tert-octyl)phenylamino]-s-triazine was measured according to the same procedure as in Example 1. This spectrum is represented in FIG. 2.

Some results are limits rather than exact numbers.

`CC(C)(C)CC(C)(C)c1cc(Nc2nc(Nc3cc(C(C)(C)CC(C)(C)C)cc(-n4nc5ccccc5n4)c3O)nc(Nc3cc(C(C)(C)CC(C)(C)C)cc(-n4nc5ccccc5n4)c3O)n2)c(O)c(-n2nc3ccccc3n2)c1` [Example 2, 2,4,6-tris[(3′-benzotriazol-2-yl-2′-hydroxy-5′-tert-octyl)phenylaminol]-s-triazine]: in data set [1] (CHCl3), the “UV λmax” value was found to be 326 nm. The “UV εmax” value in data set [1] (CHCl3, at λmax) is on record as 68,600. Besides, the “solid UV absorption spectrum: range absorbed” value in data set [2] is “absorbs throughout the UV radiation range (280-400 nm)”.

As a reminder, the melting point is the temperature of the solid-liquid transition. For the compound `Cc1cc(Nc2nc(Nc3cc(C)cc(-n4nc5ccccc5n4)c3O)nc(Nc3cc(C)cc(-n4nc5ccccc5n4)c3O)n2)c(O)c(-n2nc3ccccc3n2)c1` [Example 1, 2,4,6-tris[(3′-benzotriazol-2-yl-2′-hydroxy-5′-methyl)phenylamino]-s-triazine], the melting point was > 270 °C. Also, the “solid UV absorption spectrum: range absorbed” value in data set [2] is on record as “absorbs throughout the UV radiation range (280-400 nm)”.

For the origin of these results see patent US6361764B1, “Insoluble s-triazine derivatives and their use as UV filters” (Societe L'Oreal S.A., priority 1996, dated 2002).
